Read-outs that look alike come from different tables or passages of the source.
Columns and labels:
SARS-CoV-2 3CL-protease = SARS-CoV-2 3CL-protease (Severe acute respiratory syndrome coronavirus 2 (2019-nCoV) (SARS-CoV-2), UniProt P0DTD1); assay: SARS-CoV-2 3C-Like (3CL) Protease Fluorescence Assay (FRET); assay type: biochemical
[1] = system: 229E human corona virus (hCoV); assay: 229E Live Virus Assay (MRC-5 cells, CPE, ATPlite readout); assay type: cell-based, hCoV-229E; conditions: Human coronavirus 229E, MRC5, 144 h, read-out: 229E EC50
[2] = MRC-5 cells, hCoV-229E MOI 0.05, 6 days at 34° C., ATPlite, duplicate, ranges defined in μM

SMILES | IC50 (SARS-CoV-2 3CL-protease) [nM] | EC50 [1] [µM] | EC50 [1, 2] [µM]
CN(C(=O)[C@H](CC1CC1)NC(=O)c1cn(C2CC2)nn1)[C@@H](CC(C)(C)C)C(=O)N1C[C@]2(C[C@H]1C#N)C(=O)Nc1ccccc12 [Example 124] | < 100 | < 0.1 | –
CN(C(=O)[C@H](Cc1ccc(F)cc1)n1cc(C2CC2)nn1)[C@@H](CC(C)(C)C)C(=O)N1C[C@]2(C[C@H]1C#N)C(=O)Nc1ccccc12 [Example 9] | < 100 | – | < 0.1
CN(C(=O)[C@H](Cc1ccc(F)cc1)N1CCOC1=O)[C@@H](CC(C)(C)C)C(=O)N1C[C@]2(C[C@H]1C#N)C(=O)Nc1ccccc12 [Example 52] | < 100 | < 0.1 | –
CC(C)OC(=O)NC(C(=O)N1CCC[C@H]1C(=O)N1C[C@]2(C[C@H]1C#N)C(=O)Nc1ccccc12)C(C)(C)C (some centres unmarked) [Example 59] | > 1000 | > 1 | –
CC(C)[C@H](NC(=O)c1ccc2c(F)cc(F)cc2n1)C(=O)N(C)[C@@H](CC(C)(C)C)C(=O)N1C[C@]2(C[C@H]1C#N)C(=O)Nc1ccccc12 [Example 109] | < 100 | 0.1 to 1 | –
CN(C(=O)[C@H](Cc1ccc(F)cc1)NC(=O)NC1CC1)[C@@H](CC(C)(C)C)C(=O)N1C[C@]2(C[C@H]1C#N)C(=O)Nc1ccccc12 [Example 8] | < 100 | < 0.1 | –
CC(C)C[C@@H](C(=O)N1C[C@]2(C[C@H]1C#N)C(=O)Nc1ccccc12)N(C)C(=O)[C@H](CC1CC1)NC(=O)C(F)(F)F [Example 15] | < 100 | < 0.1 | –
CC(C)(C)C(NC(=O)c1ccc(F)cc1)C(=O)N1CCC[C@H]1C(=O)N1C[C@]2(C[C@H]1C#N)C(=O)Nc1ccccc12 (some centres unmarked) [Example 58] | > 1000 | > 1 | –
CC(C)(C)C(NC(=O)NCc1ccccc1)C(=O)N1CCC[C@H]1C(=O)N1C[C@]2(C[C@H]1C#N)C(=O)Nc1ccccc12 (some centres unmarked) [Example 60] | > 1000 | > 1 | –
CC(C)[C@@H](NC(=O)OC(C)(C)C)C(=O)N(C)[C@@H](Cc1ccccc1)C(=O)N1C[C@]2(C[C@H]1C#N)C(=O)Nc1ccccc12 [Example 48] | < 100 | < 0.1 | –
CC(C)C[C@@H](C(=O)N1C[C@]2(C[C@H]1C#N)C(=O)Nc1ccccc12)N(C)C(=O)[C@H](CC(C)(C)C)NC(=O)C(C)(C)C [Example 43] | < 100 | < 0.1 | –
CC(C)C[C@@H](C(=O)N1C[C@]2(C[C@H]1C#N)C(=O)Nc1ccccc12)N(C)C(=O)[C@H](Cc1ccc(F)cc1)NC(=O)c1cnccn1 [Example 18] | < 100 | < 0.1 | –
CC(C)[C@@H](NC(=O)C(F)(F)F)C(=O)N(C)[C@@H](Cc1ccccc1)C(=O)N1C[C@]2(C[C@H]1C#N)C(=O)Nc1ccccc12 [Example 51] | < 100 | – | 0.1 to 1
[2H]C([2H])([2H])N(C(=O)[C@H](CC1CC1)NC(=O)C1COC1)[C@@H](Cc1ccc(F)cc1)C(=O)N1C[C@]2(C[C@H]1C#N)C(=O)Nc1ccccc12 [Example 77] | < 100 | 0.1 to 1 | –
CC(C)[C@@H](NC(=O)C(F)(F)F)C(=O)N[C@@H](CC(C)(C)C)C(=O)N1C[C@]2(C[C@H]1C#N)C(=O)Nc1ccccc12 [Example 91] | 100 to 1000 | 0.1 to 1 | –
CN(C(=O)[C@H](Cc1ccc(F)cc1)N1CCCNC1=O)[C@@H](CC(C)(C)C)C(=O)N1C[C@]2(C[C@H]1C#N)C(=O)Nc1ccccc12 [Example 69] | < 100 | 0.1 to 1 | –

SMILES | IC50 (SARS-CoV-2 3CL-protease) [nM] | EC50 [1] [µM] | EC50 [1, 2] [µM]
C[C@H](NC(=O)C(F)(F)F)C(=O)N(C)[C@@H](CC(C)(C)C)C(=O)N1C[C@]2(C[C@H]1C#N)C(=O)Nc1ccccc12 [Example 128] | < 100 | < 0.1 | –
CN(C(=O)[C@@H](NC(=O)OCc1ccccc1)C(C)(C)C)[C@@H](Cc1ccccc1)C(=O)N1C[C@]2(C[C@H]1C#N)C(=O)Nc1ccccc12 [Example 28] | < 100 | 0.1 to 1 | –
Cc1cc(C(=O)N[C@H](C(=O)N(C)[C@@H](CC(C)C)C(=O)N2C[C@]3(C[C@H]2C#N)C(=O)Nc2ccccc23)C2CCCCC2)no1 [Example 40] | < 100 | 0.1 to 1 | –
CC(C)[C@H](NC(=O)OC(C)(C)C)C(=O)N(C)[C@@H](Cc1ccccc1)C(=O)N1C[C@]2(C[C@H]1C#N)C(=O)Nc1ccccc12 [Example 47] | < 100 | < 0.1 | –
CN(C(=O)[C@H](CC1CC1)NC(=O)C1COC1)[C@@H](CC(C)(C)C)C(=O)N1C[C@]2(C[C@H]1C#N)C(=O)Nc1ccccc12 [Example 122] | < 100 | < 0.1 | –
CN(C(=O)[C@H](CC1CC1)NC(=O)NC1CC1)[C@@H](CC(C)(C)C)C(=O)N1C[C@]2(C[C@H]1C#N)C(=O)Nc1ccccc12 [Example 85] | < 100 | < 0.1 | –
CN(C(=O)[C@H](Cc1ccc(F)cc1)n1cc(-c2ccccc2)nn1)[C@@H](CC(C)(C)C)C(=O)N1C[C@]2(C[C@H]1C#N)C(=O)Nc1ccccc12 [Example 54] | < 100 | < 0.1 | –
CN(C(=O)[C@H](Cc1ccc(F)cc1)NC(=O)N1CCOCC1)[C@@H](CC(C)(C)C)C(=O)N1C[C@]2(C[C@H]1C#N)C(=O)Nc1ccccc12 [Example 68] | < 100 | < 0.1 | –
CC(C)[C@H](NC(=O)OCC1(c2ccccc2)CC1)C(=O)N(C)[C@@H](CC(C)(C)C)C(=O)N1C[C@]2(C[C@H]1C#N)C(=O)Nc1ccccc12 [Example 110] | < 100 | 0.1 to 1 | –
CC(C)(C)C(N)C(=O)N1CCC[C@H]1C(=O)N1C[C@]2(C[C@H]1C#N)C(=O)Nc1ccccc12 (some centres unmarked) [Example 56] | > 1000 | – | > 1
CC(C)[C@H](NC(=O)OCc1ccccc1)C(=O)N[C@@H](CC(C)(C)C)C(=O)N1C[C@]2(C[C@H]1C#N)C(=O)Nc1ccccc12 [Example 86] | < 100 | 0.1 to 1 | –
CC(C)[C@H](NC(=O)c1cc2c(F)cc(F)c(F)c2[nH]1)C(=O)N[C@@H](CC(C)(C)C)C(=O)N1C[C@]2(C[C@H]1C#N)C(=O)Nc1ccccc12 [Example 92] | < 100 | 0.1 to 1 | –
CC(C)C[C@@H](C(=O)N1C[C@]2(C[C@H]1C#N)C(=O)Nc1ccccc12)N(C)C(=O)[C@@H](NC(=O)OCc1ccccc1)C1CCCCC1 [Example 20] | < 100 | < 0.1 | –
CN(C(=O)[C@H](Cc1ccc(F)cc1)NS(=O)(=O)C1CC1)[C@@H](CC(C)(C)C)C(=O)N1C[C@]2(C[C@H]1C#N)C(=O)Nc1ccccc12 [Example 66] | < 100 | < 0.1 | –
CC(C)(C)C[C@H](NC(=O)[C@H](Cc1ccc(F)cc1)NC(=O)C(F)(F)F)C(=O)N1C[C@]2(C[C@H]1C#N)C(=O)Nc1ccccc12 [Example 63] | < 100 | – | < 0.1

From patent publication US11325916B1, “Spiropyrrolidine derived antiviral agents” (priority 2021, dated 2022)
